From ChEMBL document CHEMBL4393657, “Tetrazole hybrids and their antifungal activities” (2019)
Values after ≈ are worked out from the molar mass of the structure shown.

Experiments:
Type in all cases: functional
Nakaseomyces glabratus = assay: Antifungal activity against Candida glabrata assessed as reduction in fungal cell growth incubated for 48 hrs by broth microdilution method
Pichia kudriavzevii = assay: Antifungal activity against Candida krusei assessed as reduction in fungal cell growth incubated for 48 hrs by broth microdilution method
Aspergillus niger = assay: Antifungal activity against Aspergillus niger assessed as reduction in fungal cell growth incubated for 72 hrs by broth microdilution method
Candida tropicalis = assay: Antifungal activity against Candida tropicalis assessed as reduction in fungal cell growth incubated for 48 hrs by broth microdilution method
Cryptococcus neoformans = assay: Antifungal activity against Cryptococcus neoformans LA314 assessed as reduction in fungal cell growth incubated for 48 hrs by broth microdilution method; settings: LA314, 48 h
Candida albicans = assay: Antifungal activity against Candida albicans assessed as reduction in fungal cell growth incubated for 48 hrs by broth microdilution method
Candida parapsilosis = assay: Antifungal activity against Candida parapsilosis ATCC 22019 assessed as reduction in fungal cell growth incubated for 48 hrs by broth microdilution method; settings: Lodderomyces parapsilosis, ATCC 22019, 48 h

## OC(Cn1cncn1)(Cn1nnc(CCN2CCN(C(c3ccccc3)c3ccccc3)CC2)n1)c1ccc(F)cc1F (stereo not drawn)
Nakaseomyces glabratus
  MIC: 1 to 16 µg/mL (≈ 1.71 to 27.3 µM)
Pichia kudriavzevii
  MIC: 1 to 16 µg/mL (≈ 1.71 to 27.3 µM)
Aspergillus niger
  MIC: 1 to 16 µg/mL (≈ 1.71 to 27.3 µM)
Candida tropicalis
  MIC: 1 to 16 µg/mL (≈ 1.71 to 27.3 µM)
Cryptococcus neoformans
  MIC: 1 to 16 µg/mL (≈ 1.71 to 27.3 µM)
Candida albicans
  MIC: 1 to 16 µg/mL (≈ 1.71 to 27.3 µM)
Candida parapsilosis
  MIC: 1 to 16 µg/mL (≈ 1.71 to 27.3 µM)

## OC(Cn1cncn1)(Cn1nnnc1CCN1CCN(c2ccc(Cl)cc2)CC1)c1ccc(F)cc1F (stereo not drawn)
Nakaseomyces glabratus
  MIC: 0.5 to 16 µg/mL (≈ 0.943 to 30.2 µM)
Pichia kudriavzevii
  MIC: 0.5 to 16 µg/mL (≈ 0.943 to 30.2 µM)
Aspergillus niger
  MIC: 0.5 to 16 µg/mL (≈ 0.943 to 30.2 µM)
Candida tropicalis
  MIC: 0.5 to 16 µg/mL (≈ 0.943 to 30.2 µM)
Cryptococcus neoformans
  MIC: 0.5 to 16 µg/mL (≈ 0.943 to 30.2 µM)
Candida albicans
  MIC: 0.5 to 16 µg/mL (≈ 0.943 to 30.2 µM)
Candida parapsilosis
  MIC: 0.5 to 16 µg/mL (≈ 0.943 to 30.2 µM)

## OC(Cn1cncn1)(Cn1nnnc1CCN1CCN(c2ccccc2)CC1)c1ccc(F)cc1F (stereo not drawn)
Nakaseomyces glabratus
  MIC: 0.5 to 16 µg/mL (≈ 1.01 to 32.3 µM)
Pichia kudriavzevii
  MIC: 0.5 to 16 µg/mL (≈ 1.01 to 32.3 µM)
Aspergillus niger
  MIC: 0.5 to 16 µg/mL (≈ 1.01 to 32.3 µM)
Candida tropicalis
  MIC: 0.5 to 16 µg/mL (≈ 1.01 to 32.3 µM)
Cryptococcus neoformans
  MIC: 0.5 to 16 µg/mL (≈ 1.01 to 32.3 µM)
Candida albicans
  MIC: 0.5 to 16 µg/mL (≈ 1.01 to 32.3 µM)
Candida parapsilosis
  MIC: 0.5 to 16 µg/mL (≈ 1.01 to 32.3 µM)

## OC(Cn1cncn1)(Cn1nnc(CCN2CCN(c3cccc(C(F)(F)F)c3)CC2)n1)c1ccc(F)cc1F (stereo not drawn)
Nakaseomyces glabratus
  MIC: 1 to 16 µg/mL (≈ 1.77 to 28.4 µM)
Pichia kudriavzevii
  MIC: 1 to 16 µg/mL (≈ 1.77 to 28.4 µM)
Aspergillus niger
  MIC: 1 to 16 µg/mL (≈ 1.77 to 28.4 µM)
Candida tropicalis
  MIC: 1 to 16 µg/mL (≈ 1.77 to 28.4 µM)
Cryptococcus neoformans
  MIC: 1 to 16 µg/mL (≈ 1.77 to 28.4 µM)
Candida albicans
  MIC: 1 to 16 µg/mL (≈ 1.77 to 28.4 µM)
Candida parapsilosis
  MIC: 1 to 16 µg/mL (≈ 1.77 to 28.4 µM)

## CC(n1nnnc1CCN1CCN(c2c(Cl)cccc2Cl)CC1)C(O)(Cn1cncn1)c1ccc(F)cc1F (stereo not drawn)
Nakaseomyces glabratus
  MIC: 0.5 to 16 µg/mL (≈ 0.864 to 27.7 µM)
Pichia kudriavzevii
  MIC: 0.5 to 16 µg/mL (≈ 0.864 to 27.7 µM)
Aspergillus niger
  MIC: 0.5 to 16 µg/mL (≈ 0.864 to 27.7 µM)
Candida tropicalis
  MIC: 0.5 to 16 µg/mL (≈ 0.864 to 27.7 µM)
Cryptococcus neoformans
  MIC: 0.5 to 16 µg/mL (≈ 0.864 to 27.7 µM)
Candida albicans
  MIC: 0.5 to 16 µg/mL (≈ 0.864 to 27.7 µM)
Candida parapsilosis
  MIC: 0.5 to 16 µg/mL (≈ 0.864 to 27.7 µM)

## CCCCOc1ccccc1N1CCN(CCc2nnn([C@@H](C)[C@](O)(Cn3cncn3)c3ccc(F)cc3F)n2)CC1
Nakaseomyces glabratus
  MIC: 0.25 to 16 µg/mL (≈ 0.43 to 27.5 µM)
Pichia kudriavzevii
  MIC: 0.25 to 16 µg/mL (≈ 0.43 to 27.5 µM)
Aspergillus niger
  MIC: 0.25 to 16 µg/mL (≈ 0.43 to 27.5 µM)
Candida tropicalis
  MIC: 0.25 to 16 µg/mL (≈ 0.43 to 27.5 µM)
Cryptococcus neoformans
  MIC: 0.25 to 16 µg/mL (≈ 0.43 to 27.5 µM)
Candida albicans
  MIC: 0.25 to 16 µg/mL (≈ 0.43 to 27.5 µM)
Candida parapsilosis
  MIC: 0.25 to 16 µg/mL (≈ 0.43 to 27.5 µM)

## COc1ccccc1N1CCN(CCc2nnn(C(C)C(O)(Cn3cncn3)c3ccc(F)cc3F)n2)CC1 (stereo not drawn)
Nakaseomyces glabratus
  MIC: 1 to 16 µg/mL (≈ 1.85 to 29.7 µM)
Pichia kudriavzevii
  MIC: 1 to 16 µg/mL (≈ 1.85 to 29.7 µM)
Aspergillus niger
  MIC: 1 to 16 µg/mL (≈ 1.85 to 29.7 µM)
Candida tropicalis
  MIC: 1 to 16 µg/mL (≈ 1.85 to 29.7 µM)
Cryptococcus neoformans
  MIC: 1 to 16 µg/mL (≈ 1.85 to 29.7 µM)
Candida albicans
  MIC: 1 to 16 µg/mL (≈ 1.85 to 29.7 µM)
Candida parapsilosis
  MIC: 1 to 16 µg/mL (≈ 1.85 to 29.7 µM)

## CC(n1nnc(CCN2CCN(c3c(Cl)cccc3Cl)CC2)n1)C(O)(Cn1cncn1)c1ccc(F)cc1F (stereo not drawn)
Nakaseomyces glabratus
  MIC: 1 to 16 µg/mL (≈ 1.73 to 27.7 µM)
Pichia kudriavzevii
  MIC: 1 to 16 µg/mL (≈ 1.73 to 27.7 µM)
Aspergillus niger
  MIC: 1 to 16 µg/mL (≈ 1.73 to 27.7 µM)
Candida tropicalis
  MIC: 1 to 16 µg/mL (≈ 1.73 to 27.7 µM)
Cryptococcus neoformans
  MIC: 1 to 16 µg/mL (≈ 1.73 to 27.7 µM)
Candida albicans
  MIC: 1 to 16 µg/mL (≈ 1.73 to 27.7 µM)
Candida parapsilosis
  MIC: 1 to 16 µg/mL (≈ 1.73 to 27.7 µM)

## CCCCOc1ccccc1N1CCN(CCc2nnnn2CC(O)(Cn2cncn2)c2ccc(F)cc2F)CC1 (stereo not drawn)
Nakaseomyces glabratus
  MIC: 0.5 to 16 µg/mL (≈ 0.881 to 28.2 µM)
Pichia kudriavzevii
  MIC: 0.5 to 16 µg/mL (≈ 0.881 to 28.2 µM)
Aspergillus niger
  MIC: 0.5 to 16 µg/mL (≈ 0.881 to 28.2 µM)
Candida tropicalis
  MIC: 0.5 to 16 µg/mL (≈ 0.881 to 28.2 µM)
Cryptococcus neoformans
  MIC: 0.5 to 16 µg/mL (≈ 0.881 to 28.2 µM)
Candida albicans
  MIC: 0.5 to 16 µg/mL (≈ 0.881 to 28.2 µM)
Candida parapsilosis
  MIC: 0.5 to 16 µg/mL (≈ 0.881 to 28.2 µM)
